Literature values in patent US20070259053A1, “Inhibition of nephrotoxicity induced by Trasylol® and like agents” (priority 2006, published 2007).
Where two headings read alike, the source gives them in different places.

Assays:
[1] = tested on: renal accumulation of lysozyme; settings: microinfusion experiments
[2] = tested on: toxic effects of spermine and gentamicin
[3] = tested on: renal accumulation of gentamicin
[4] = tested on: isolated renal brush border membranes; settings: for effect on binding of gentamicin to isolated renal brush border membranes: isolated BBM
[5] = tested on: gentamicin induced renal toxic effects
BBM = settings: for effect on binding of albumins of increased isoelectric points to BBM: b13: pH 6.5, pI 8.5 albumins
kidney = settings: noted by autoradiography
[6] = tested on: renal toxic effects of cisplatin; settings: bird
[7] = tested on: renal toxic effects of cisplatin; settings: rat
[8] = tested on: mercury induced acute renal failure; settings: in vivo

## N.N.[Cl][Pt][Cl] [cisplatin]
Vesicles of BBM
  effect on transport of N′-methylnicotinamide into vesicles of BBM: inhibited
  effect on transport of tetraethylamonium (TEA) into vesicles of BBM: inhibited
Mouse kidney
  effect on uptake of TEA: inhibited
  effect on uptake of p-aminohipputate: inhibited

## Myoglobin
[1]
  effect on renal accumulation of lysozyme: without effect

## N=C(N)NCCC[C@H](N)C(=O)O [L-arginine]
[1]
  effect on renal accumulation of lysozyme: inhibited

## cytochrome C
[1]
  effect on renal accumulation of lysozyme: inhibited

## Cc1ncc(COP(=O)(O)O)c(C=O)c1O [pyridoxal 5′-phsophate, pyridoxal 5′-phosphate]
[2]; in vivo
  effect on toxic effects of gentamicin: inhibited
[2]; positively charged renal toxin spermine
  effect on toxic effects of spermine: inhibited

## [Cd] [cadmium]
[3]; cadmium treated animals
  effect on gentamicin accumulation in the renal cortex: reduced

## polylycine
[4]
  effect on binding of gentamicin to isolated renal brush border membranes: inhibited
[5]; whole animal
  effect on acute toxic effects of whole animal nephrotoxicity (gentamicin): lessened

## NCCCNCCCCNCCCN [spermine]
[4]; renal tubular BBM
  effect on uptake of gentamicin by renal tubular BBM: inhibited
[1]
  effect on renal accumulation of lysozyme: inhibited

## C[n+]1cccc(C(N)=O)c1 [N′-methylnicotinamide]
[3]; rats
  effect on renal accumulation of gentamicin: inhibited
  effect on urinary excretion of gentamicin: increased

## [Ca+2] [calcium]
[4]
  effect on binding of gentamicin to isolated renal brush border membranes: competitive inhibitor
BBM
  effect on binding of lysozyme to BBM: decreased
  effect on binding of albumins of increased isoelectric points to BBM: decreased
BBM; listed as Ca^++
  effect on binding of albumins of increased isoelectric points to BBM: inhibited
  effect on binding of lysozyme to BBM: inhibited

## aprotinin
kidney
  time after administration at which level peaked in the kidney: 72 h
[3]; in vivo
  effect on renal absorption of gentamicin: did not unambiguously inhibit
[4]
  effect on binding of gentamicin to isolated renal brush border membranes: inhibited

## C=C[C@H]1C[N@@]2CC[C@H]1C[C@H]2[C@H](O)c1ccnc2ccc(OC)cc12 [quinine]
[6]
  effect on renal toxic effects of cisplatin: provided protection
[7]
  effect on renal toxic effects of cisplatin: provided protection

## ribonuclease
[1]
  effect on renal accumulation of lysozyme: inhibited

## tetralysine
[3]; rat renal cortex
  effect on uptake of gentamicin in rat renal cortex: inhibited

## Clc1cccc(Cl)c1N=C1NCCN1 [Clonidine]
[5]; rat kidney
  effect on gentamicin induced renal toxic effects: inhibited
[8]
  effect on mercury induced acute renal failure: protected

## NCCCC[C@H](N)C(=O)O [lysine]
[5]; given with gentamicin
  effect with the renal toxic effects of gentamicin: additive effect
[1]
  effect on renal accumulation of lysozyme: inhibited
